Results taken from ChEMBL document CHEMBL1149775, “Synthesis, characterization and biological activity of Schiff base analogues of indole-3-carboxaldehyde” (2008).
Values after ≈ are worked out from the molar mass of the structure shown.

How the values were obtained:
Type in all cases: functional
Staphylococcus aureus = experiment: Antibacterial activity against Staphylococcus aureus after 24 hrs by broth dilution technique
Pseudomonas fluorescens = experiment: Antibacterial activity against Pseudomonas fluorescens after 24 hrs by broth dilution technique
Bacillus subtilis = experiment: Antibacterial activity against Bacillus subtilis after 24 hrs by broth dilution technique
Trichophyton rubrum = experiment: Antifungal activity against Trichophyton rubrum after 48 hrs by serial plate dilution method
Candida albicans = experiment: Antifungal activity against Candida albicans after 48 hrs by serial plate dilution method
Aspergillus niger = experiment: Antifungal activity against Aspergillus niger after 48 hrs by serial plate dilution method

| Compound | MIC (Staphylococcus aureus) | MIC (Pseudomonas fluorescens) | MIC (Bacillus subtilis) | MIC (Trichophyton rubrum) | MIC (Candida albicans) | MIC (Aspergillus niger) |
| --- | --- | --- | --- | --- | --- | --- |
| O=C(O)C(Cc1c[nH]cn1)/N=C/c1c[nH]c2ccccc12 (configuration not stated) | 3.4 µg/mL (≈ 12 µM) | 3.8 µg/mL (≈ 13.5 µM) | 35.1 µg/mL (≈ 124 µM) | > 50 µg/mL | > 50 µg/mL | 47.5 µg/mL (≈ 168 µM) |
| O=S(=O)(O)c1cc(O)c(/N=C/c2c[nH]c3ccccc23)c2ccccc12 | > 50 µg/mL | 21.6 µg/mL (≈ 59 µM) | 15.5 µg/mL (≈ 42.3 µM) | 21.9 µg/mL (≈ 59.8 µM) | 15.2 µg/mL (≈ 41.5 µM) | 21.3 µg/mL (≈ 58.1 µM) |
| O=C(O)CC(/N=C/c1c[nH]c2ccccc12)C(=O)O (configuration not stated) | 18.5 µg/mL (≈ 71.1 µM) | 19.3 µg/mL (≈ 74.2 µM) | 11.3 µg/mL (≈ 43.4 µM) | 16.2 µg/mL (≈ 62.2 µM) | 11.9 µg/mL (≈ 45.7 µM) | 17.8 µg/mL (≈ 68.4 µM) |
| Oc1ccccc1/N=C/c1c[nH]c2ccccc12 | 35.9 µg/mL (≈ 152 µM) | 15.8 µg/mL (≈ 66.9 µM) | 18.4 µg/mL (≈ 77.9 µM) | > 50 µg/mL | 28.4 µg/mL (≈ 120 µM) | > 50 µg/mL |
| CC(C)C(/N=C/c1c[nH]c2ccccc12)C(=O)O (configuration not stated) | 16.8 µg/mL (≈ 68.8 µM) | 38.1 µg/mL (≈ 156 µM) | 42.5 µg/mL (≈ 174 µM) | > 50 µg/mL | 26.8 µg/mL (≈ 110 µM) | > 50 µg/mL |
| O=C(O)CCC(/N=C/c1c[nH]c2ccccc12)C(=O)O (configuration not stated) | 19.2 µg/mL (≈ 70 µM) | 5.7 µg/mL (≈ 20.8 µM) | 48.2 µg/mL (≈ 176 µM) | > 50 µg/mL | 12.5 µg/mL (≈ 45.6 µM) | > 50 µg/mL |
| CC(C)CC(/N=C/c1c[nH]c2ccccc12)C(=O)O (configuration not stated) | 35.3 µg/mL (≈ 137 µM) | > 50 µg/mL | 12.1 µg/mL (≈ 46.8 µM) | > 50 µg/mL | 19.9 µg/mL (≈ 77 µM) | > 50 µg/mL |
